Read-outs that look alike come from different tables or passages of the source.
Tested on: Streptococcus pyogenes (ATCC #97-03 14289)
Assay: Anti-microbial screen (growth inhibition, OD 570 nm)
Assay type: cell-based
Method: Streptococcus pyogenes (ATCC #97-03 14289) are grown in Todd Hewitt Broth (THB) (Difco Laboratories #0492-17-6) overnight until they reach an optical density of (OD=0.636@570 nm) by reading 0.1 ml in a 96 well microtiter plate in a Molecular Devices Thermomax. This preparation is kept frozen as stocks in 30% v/v glycerol in 1.5 ml aliquots at −70° C. until use. Prior to screening, 1.5 ml aliquots are thawed and diluted into 50 ml THB. 200 μl of this dilution is added to 92 wells of microtiter plate. To three wells THB (200 μl) is added to serve as a blank and a sterility control. Test compounds in DMSO and appropriate concentrations of DMSO are added to Growth/Solvent Controls at 0 time. Plates are read at 0 time at 570 nm in the Molecular Devices plate reader to obtain compounds correction factors for insoluble or colored compounds. Plates are read again at 4 hrs.
Compounds are assayed at a concentration of 170 μg/ml. Percent inhibition for each compound is calculated using the following formulae:
Color correct=(O.D. 0 hr −Blank 0 hr)—(Solvent Control 0 hr−Blank 0 hr)
% Inhibition=100−(O.D. test compound 4 hr−Blank 4 hr−color correct) divided by (O.D. growth/solvent control 4 hr−Blank 4 hr)

[1] = ATCC97, compounds assayed at 170 μg/ml, growth in Todd Hewitt Broth read at 570 nm at 4 hrs, read-out: % Inhibition

| Compound | inhibition at 170 µg/mL [1] | inhibition at 170 µg/mL (ATCC97, 4 h) |
| --- | --- | --- |
| CN(C)CCCOc1ccc(C2Cc3ccc(NC(=O)c4cc(C(F)(F)F)cc(C(F)(F)F)c4)cc3C(=O)N2Cc2ccc(C(=O)N(CC(N)=O)C3CC3)cc2)cc1 (stereo not drawn) | 99.9% | – |
| CCCCCCCC(=O)Nc1ccc2c(c1)C(=O)N(CCC(=O)N(CCN(C)C)CC(N)=O)C(c1ccc(C)cc1)C2 (stereo not drawn) | 99.9% | – |
| CCCCCC/C=C/C(=O)Nc1ccc2c(c1)C(=O)N(CCC(=O)N(CCN(C)C)CC(N)=O)C(c1ccccc1)C2 (stereo not drawn) | 99.8% | – |
| CN(C)CCN(CC(N)=O)C(=O)CCN1C(=O)c2cc(NC(=O)CCC3CCCC3)ccc2CC1c1cccc2ccccc12 (stereo not drawn) | 99.8% | – |
| COc1cc(OC)cc(C2Cc3ccc(NC(=O)C4CCC(C)CC4)cc3C(=O)N2CCC(=O)N(CCN(C)C)CC(N)=O)c1 (stereo not drawn) | 99.8% | – |
| CN(C)CCCOc1ccc(C2Cc3ccc(NC(=O)c4ccc(I)cc4)cc3C(=O)N2CCC(=O)N(CCN(C)C)CC(N)=O)cc1 (stereo not drawn) | 99.8% | – |
| CN(C)CCCOc1ccc(C2Cc3ccc(NC(=O)Cc4cccc(C(F)(F)F)c4)cc3C(=O)N2CCC(=O)N(CCN(C)C)CC(N)=O)cc1 (stereo not drawn) | 99.8% | – |
| CCCN(CC(N)=O)C(=O)c1ccc(CN2C(=O)c3cc(NC(=O)c4ccc(OC(F)(F)F)cc4)ccc3CC2c2ccc(OCCCN(C)C)cc2)cc1 (stereo not drawn) | 99.7% | – |
| CN(C)CCCOc1ccc(C2Cc3ccc(NC(=O)CC4CCCC4)cc3C(=O)N2Cc2ccc(C(=O)N(CC(N)=O)Cc3ccccc3)cc2)cc1 (stereo not drawn) | 99.2% | – |
| CN(C)CCN(CC(N)=O)C(=O)c1ccc(CN2C(=O)c3cc(NC(=O)CCC4CCCC4)ccc3CC2c2ccc(C(F)(F)F)cc2)cc1 (stereo not drawn) | 99% | – |
| CN(C)CCN(CC(N)=O)C(=O)CCN1C(=O)c2cc(NC(=O)c3cnccn3)ccc2CC1c1cccc2ccccc12 (stereo not drawn) | 99% | – |
| CN(C)CCN(CC(N)=O)C(=O)CCN1C(=O)c2cc(NC(=O)C3(c4ccccc4)CC3)ccc2CC1c1cccc2ccccc12 (stereo not drawn) | 99% | – |
| Cc1nnsc1C(=O)Nc1ccc2c(c1)C(=O)N(CCC(=O)N(CCN(C)C)CC(N)=O)C(c1cccc3ccccc13)C2 (stereo not drawn) | 99% | – |
| CN(C)CCN(CC(N)=O)C(=O)c1ccc(CN2C(=O)c3cc(NC(=O)c4c(F)cccc4F)ccc3CC2c2ccc(C(C)(C)C)cc2)cc1 (stereo not drawn) | 99% | – |
| COc1cc(OC)cc(C2Cc3ccc(NC(=O)CC(C)CC(C)(C)C)cc3C(=O)N2CCC(=O)N(CCN(C)C)CC(N)=O)c1 (stereo not drawn) | 99% | – |
| CN(C)CCCOc1ccc(C2Cc3ccc(NC(=O)CCC4CCCCC4)cc3C(=O)N2CCC(=O)N(CCN(C)C)CC(N)=O)cc1 (stereo not drawn) | 99% | – |
| CC1CCC(C(=O)Nc2ccc3c(c2)C(=O)N(CCC(=O)N(CCN(C)C)CC(N)=O)C(c2ccc(OCCCN(C)C)cc2)C3)CC1 (stereo not drawn) | 99% | – |
| CCOP(=O)(CC(=O)Nc1ccc2c(c1)C(=O)N(CCC(=O)N(CCN(C)C)CC(N)=O)C(c1ccc(C(F)(F)F)cc1)C2)OCC (stereo not drawn) | – | 98.9% |
| Cc1cc(C)c(C(=O)C(=O)Nc2ccc3c(c2)C(=O)N(CCC(=O)N(CCN(C)C)CC(N)=O)C(c2ccc(C(F)(F)F)cc2)C3)c(C)c1 (stereo not drawn) | 98.9% | – |

| Compound | inhibition at 170 µg/mL [1] | inhibition at 170 µg/mL (ATCC97, 4 h) |
| --- | --- | --- |
| CN(C)CCN(CC(N)=O)C(=O)c1ccc(CN2C(=O)c3cc(NC(=O)c4ccc(I)cc4)ccc3CC2c2cccnc2)cc1 (stereo not drawn) | 98.8% | – |
| CCCCCCCC(=O)Nc1ccc2c(c1)C(=O)N(CCC(=O)N(CCC)CC(N)=O)C(c1ccc(OCCCN(C)C)cc1)C2 (stereo not drawn) | 98.8% | – |
| CN(C)CCCOc1ccc(C2Cc3ccc(NC(=O)c4ccc(I)cc4)cc3C(=O)N2CCC(=O)N(CC(N)=O)Cc2cccc(C(F)(F)F)c2)cc1 (stereo not drawn) | 98.8% | – |
| CN(C)CCCOc1ccc(C2Cc3ccc(NC(=O)C4(c5ccccc5)CC4)cc3C(=O)N2Cc2ccc(C(=O)N(CC(N)=O)Cc3cccc(C(F)(F)F)c3)cc2)cc1 (stereo not drawn) | 98.8% | – |
| Cc1ccc(C2Cc3ccc(NC(=O)c4cccnc4Cl)cc3C(=O)N2Cc2ccc(C(=O)N(CCN(C)C)CC(N)=O)cc2)cc1 (stereo not drawn) | 98.8% | – |
| COc1cccc(CN(CC(N)=O)C(=O)CCN2C(=O)c3cc(NC(=O)CC4CC5CCC4C5)ccc3CC2c2ccc(OCCCN(C)C)cc2)c1 (stereo not drawn) | 98.8% | – |
| CC(CC(=O)Nc1ccc2c(c1)C(=O)N(Cc1ccc(C(=O)N(CCN(C)C)CC(N)=O)cc1)C(c1ccc(C(F)(F)F)cc1)C2)CC(C)(C)C (stereo not drawn) | 98.7% | – |
| CN(C)CCN(CC(N)=O)C(=O)CCN1C(=O)c2cc(NC(=O)c3ccc(F)c(F)c3)ccc2CC1c1ccc(C(C)(C)C)cc1 (stereo not drawn) | 98.7% | – |
| NC(=O)CN(Cc1cccc(C(F)(F)F)c1)C(=O)CCN1C(=O)c2cc(NC(=O)CCC3CCCC3)ccc2CC1c1cccc(Oc2ccc(Cl)c(Cl)c2)c1 (stereo not drawn) | 98.7% | – |
| C=CCN(CC(N)=O)C(=O)CCN1C(=O)c2cc(NC(=O)C(=O)c3c(C)cc(C)cc3C)ccc2CC1c1ccc(OCCCN(C)C)cc1 (stereo not drawn) | 98.7% | – |
| CN(C)CCN(CC(N)=O)C(=O)c1ccc(CN2C(=O)c3cc(NC(=O)c4cc(C(F)(F)F)cc(C(F)(F)F)c4)ccc3CC2c2ncc[nH]2)cc1 (stereo not drawn) | 98.7% | – |
| CN(C)CCN(CC(N)=O)C(=O)c1ccc(CN2C(=O)c3cc(NC(=O)CCC4CCCC4)ccc3CC2c2ccc3ccccc3n2)cc1 (stereo not drawn) | 98.6% | – |
| CN(C)CCCOc1ccc(C2Cc3ccc(NC(=O)CCC4CCCC4)cc3C(=O)N2CCC(=O)N(CCN(C)C)CC(N)=O)cc1 (stereo not drawn) | 98.6% | – |
| CN(C)CCCOc1ccc(C2Cc3ccc(NC(=O)COc4ccc5ccccc5c4)cc3C(=O)N2Cc2ccc(C(=O)N(CCN(C)C)CC(N)=O)cc2)cc1 (stereo not drawn) | 98.6% | – |
| CCCCCCCC(=O)Nc1ccc2c(c1)C(=O)N(CCC(=O)N(CC(N)=O)Cc1cccc(C(F)(F)F)c1)C(c1ccc(OCCCN(C)C)cc1)C2 (stereo not drawn) | 98.5% | – |
| NC(=O)CN(C(=O)CCN1C(=O)c2cc(NC(=O)/C=C/c3ccccc3C(F)(F)F)ccc2CC1c1cccc(Oc2ccc(Cl)c(Cl)c2)c1)C1CC1 (stereo not drawn) | 98.5% | – |
| CN(C)CCN(CC(N)=O)C(=O)CCN1C(=O)c2cc(NC(=O)CC3CC4CCC3C4)ccc2CC1c1ccc2ccccc2n1 (stereo not drawn) | 98.5% | – |
| C=CCN(CC(N)=O)C(=O)CCN1C(=O)c2cc(NC(=O)CP(=O)(OCC)OCC)ccc2CC1c1cccc(Oc2ccc(Cl)c(Cl)c2)c1 (stereo not drawn) | – | 98.5% |
| CN(C)CCN(CC(N)=O)C(=O)CCN1C(=O)c2cc(NC(=O)c3ccc(C#N)cc3)ccc2CC1c1ccc(C(C)(C)C)cc1 (stereo not drawn) | 98.5% | – |

| Compound | inhibition at 170 µg/mL [1] | inhibition at 170 µg/mL (ATCC97, 4 h) |
| --- | --- | --- |
| Cc1cnc(C(=O)Nc2ccc3c(c2)C(=O)N(CCC(=O)N(CCN(C)C)CC(N)=O)C(c2ccc(C(C)(C)C)cc2)C3)cn1 (stereo not drawn) | 98.5% | – |
| CN(C)CCN(CC(N)=O)C(=O)c1ccc(CN2C(=O)c3cc(NC(=O)/C=C/c4ccccc4C(F)(F)F)ccc3CC2c2ccc(C(C)(C)C)cc2)cc1 (stereo not drawn) | 98.5% | – |
| Cc1ccc(C2Cc3ccc(NC(=O)c4ccc(F)c(F)c4)cc3C(=O)N2Cc2ccc(C(=O)N(CCN(C)C)CC(N)=O)cc2)cc1 (stereo not drawn) | 98.5% | – |
| CC1CCC(C(=O)Nc2ccc3c(c2)C(=O)N(Cc2ccc(C(=O)N(CCN(C)C)CC(N)=O)cc2)C(c2cccc(C#N)c2)C3)CC1 (stereo not drawn) | 98.5% | – |
| NC(=O)CN(Cc1ccccc1)C(=O)CCN1C(=O)c2cc(NC(=O)CCC3CCCC3)ccc2CC1c1cccc2ccccc12 (stereo not drawn) | 98.4% | – |
| CCCCCCCC(=O)Nc1ccc2c(c1)C(=O)N(CCC(=O)N(CCN(C)C)CC(N)=O)C(c1ccc(F)c(F)c1)C2 (stereo not drawn) | 98.4% | – |
| CN(C)CCN(CC(N)=O)C(=O)CCN1C(=O)c2cc(NC(=O)CC3CC4CCC3C4)ccc2CC1c1ccc(F)c(F)c1 (stereo not drawn) | 98.4% | – |
| CN(C)CCN(CC(N)=O)C(=O)c1ccc(CN2C(=O)c3cc(NC(=O)/C=C/c4ccccc4C(F)(F)F)ccc3CC2c2ccc(F)c(F)c2)cc1 (stereo not drawn) | 98.4% | – |
| CN(C)CCN(CC(N)=O)C(=O)c1ccc(CN2C(=O)c3cc(NC(=O)c4cccc(C(F)(F)F)c4F)ccc3CC2c2ccccc2)cc1 (stereo not drawn) | 98.3% | – |
| CSc1ccccc1C(=O)Nc1ccc2c(c1)C(=O)N(Cc1ccc(C(=O)N(CCN(C)C)CC(N)=O)cc1)C(c1ccc(C(F)(F)F)cc1)C2 (stereo not drawn) | 98.3% | – |
| CN(C)CCN(CC(N)=O)C(=O)CCN1C(=O)c2cc(NC(=O)c3cc(C(F)(F)F)cc(C(F)(F)F)c3)ccc2CC1c1ccc2ccccc2n1 (stereo not drawn) | 98.2% | – |
| CN(C)CCCOc1ccc(C2Cc3ccc(NC(=O)CCC4CCCC4)cc3C(=O)N2CCC(=O)N(CC(N)=O)C2CC2)cc1 (stereo not drawn) | 98.2% | – |
| CN(C)CCN(CC(N)=O)C(=O)CCN1C(=O)c2cc(NC(=O)c3ccccc3F)ccc2CC1c1ccc(C(C)(C)C)cc1 (stereo not drawn) | 98.2% | – |
| CN(C)CCN(CC(N)=O)C(=O)CCN1C(=O)c2cc(NC(=O)c3ccco3)ccc2CC1c1cccc2ccccc12 (stereo not drawn) | 98.2% | – |
| CCCCCC/C=C/C(=O)Nc1ccc2c(c1)C(=O)N(Cc1ccc(C(=O)N(CCOC)CC(N)=O)cc1)C(c1ccc(C(C)(C)C)cc1)C2 (stereo not drawn) | 98.2% | – |
| CN(C)CCCOc1ccc(C2Cc3ccc(NC(=O)CC4CC5CCC4C5)cc3C(=O)N2Cc2ccc(C(=O)N(CC(N)=O)Cc3ccccc3)cc2)cc1 (stereo not drawn) | 98.2% | – |
| COc1cc(OC)cc(C2Cc3ccc(NC(=O)c4c(F)c(F)c(C)c(F)c4F)cc3C(=O)N2CCC(=O)N(CCN(C)C)CC(N)=O)c1 (stereo not drawn) | 98.2% | – |
| CCCC(CCC)C(=O)Nc1ccc2c(c1)C(=O)N(CCC(=O)N(CCN(C)C)CC(N)=O)C(c1cc(OC)cc(OC)c1)C2 (stereo not drawn) | 98.2% | – |
| CN(C)CCN(CC(N)=O)C(=O)c1ccc(CN2C(=O)c3cc(NC(=O)CC4CC5CCC4C5)ccc3CC2c2ccc(C(F)(F)F)cc2)cc1 (stereo not drawn) | 98.1% | – |

Source: US6452009B1, “4-unsubstituted dihydroisoquinolinone derivatives and combinatorial libraries thereof” (Lion Bioscience AG, priority 1999, dated 2002)
